In one experiment the test system is MRSA 15187. Description: MIC by agar incorporation method, MRSA 15187. The class given is cell-based, Methicillin Resistant Staphylococcus aureus. The arrangement: unit not given here. To be noted: Mueller Hinton agar, 10^4 CFU/spot, 24 hours. The text has this:
2) MRSA 15187—Methicillin Resistant Staphylococcus aureus

The next experiment deals with VRE 6A. Description: MIC by agar incorporation method, VRE 6A. The settings on record: Mueller Hinton agar, 10^4 CFU/spot, 18 hours. Also noted: unit not given here. The format is cell-based, Enterococcus faecium. The text has this: 4) Ent. faecium […]—Enterococcus faecium 6A Van®, Cipro®
In a further experiment the test system is Strep. pne. ATCC 6303. The experiment can be described thus: MIC by agar incorporation method, S. pneum 6303. The class given is cell-based, Streptococcus pneumoniae. To be noted: Mueller Hinton agar, 10^4 CFU/spot, 18 hours. The text has this:
5) Strep. pne. ATCC 6303—Streptococcus pneumoniae ATCC 6303

For a further experiment, the system named is MRSA 562. The experiment can be described thus: MIC by agar incorporation method, MRSA 562. The format is cell-based, Methicillin Resistant Staphylococcus aureus. The arrangement: unit not given here. To be noted: Mueller Hinton agar, 10^4 CFU/spot, 24 hours.
A further experiment has as its system S. pneum AB 34. Description: MIC by agar incorporation method, S. pneum AB 34. The format is cell-based, Streptococcus pneumoniae. The arrangement: unit not given here. To be noted: Mueller Hinton agar, 10^4 CFU/spot, 18 hours.
Another experiment has as its system Ent. faecalis ATCC 29212. The experiment can be described thus: MIC by agar incorporation method, E.faecalis 29212. Also noted: unit not given here. The format is cell-based, Enterococcus faecalis. The settings on record: Mueller Hinton agar, 10^4 CFU/spot, 18 hours. The source says:
3) Ent. faecalis ATCC 29212—Enterococcus faecalis ATCC 29212

A further experiment relates to S.aureus ATCC 25923. Description: MIC by agar incorporation method, S.aureus 25923. The class given is cell-based, Staphylococus aureus. The arrangement: unit not given here. To be noted: Mueller Hinton agar, 10^4 CFU/spot, 18 hours.
For a further experiment, the system named is Strep.pyog. ATCC 19615. Description: MIC by agar incorporation method, S.pyogenes 19615. The class given is cell-based, Streptococcus pyogenes. The arrangement: unit not given here. To be noted: Mueller Hinton agar, 10^4 CFU/spot, 18 hours. The source says: 6) Strep.pyog. ATCC 19615—Streptococcus pyogenes
In the next experiment the test system is MRSA 33. The experiment can be described thus: MIC by agar incorporation method, MRSA 33. The class given is cell-based, Methicillin Resistant Staphylococcus aureus. Also noted: unit not given here. The settings on record: Mueller Hinton agar, 10^4 CFU/spot, 24 hours.

Each structure is given as a SMILES string.

As to `CC(=O)NC[C@H]1CN(c2ccc(N3CCC(N(C)Cc4ccc([N+](=O)[O-])s4)C3)c(F)c2)C(=O)O1` (stereo partly drawn) [Compound No. 90, (S)-N-[[3-[3-Fluoro-4-[N-1,3-[N-methyl[N-{2-thiophenyl(5-nitro)methyl}]aminopyrodinyl]phenyl]]-2-oxo-5-oxazolidinyl]methyl]acetamide], the “In Vitro (MIC) MRSA 15187” value in the experiment with MRSA 15187 is on record as 2. In the experiment with VRE 6A, the “In Vitro (MIC) VRE 6A” value stood at 4. In addition, in the experiment with Strep. pne. ATCC 6303, the “In Vitro (MIC) S. pneum 6303” value was found to be 4 µg/mL. Besides, the “In Vitro (MIC) MRSA 562” value in the experiment on MRSA 562 stood at 2. For the same compound, the “In Vitro (MIC) S. pneum AB 34” value in the experiment with S. pneum AB 34 turned out to be 4. Besides, in the experiment on Ent. faecalis ATCC 29212, the “In Vitro (MIC) E.faecalis 29212” value worked out at 4. Besides, the “In Vitro (MIC) S.aureus 25923” value with S.aureus ATCC 25923 is reported as 4. The “In Vitro (MIC) S.pyogenes 19615” value in the experiment with Strep.pyog. ATCC 19615 amounted to 2. Further, the “In Vitro (MIC) MRSA 33” value in the experiment on MRSA 33 is 4.
On to `CC(=O)NC[C@H]1CN(c2ccc(N3CCC(N(C)C(=O)c4ccc([N+](=O)[O-])s4)C3)c(F)c2)C(=O)O1` (stereo partly drawn) [Compound No. 91], for which the “In Vitro (MIC) MRSA 15187” value in the experiment on MRSA 15187 is recorded as less than 0.25. Also, the “In Vitro (MIC) VRE 6A” value in the experiment with VRE 6A is given as 1. In the experiment on Strep. pne. ATCC 6303, the “In Vitro (MIC) S. pneum 6303” value was found to be 1 µg/mL. For the same compound, the “In Vitro (MIC) MRSA 562” value in the experiment with MRSA 562 is less than 0.25. In addition, the “In Vitro (MIC) S. pneum AB 34” value in the experiment on S. pneum AB 34 came out at 1. For the same compound, the “In Vitro (MIC) E.faecalis 29212” value in the experiment on Ent. faecalis ATCC 29212 is reported as 0.5. The “In Vitro (MIC) S.aureus 25923” value in the experiment with S.aureus ATCC 25923 is listed as less than 0.25. Besides, the “In Vitro (MIC) S.pyogenes 19615” value with Strep.pyog. ATCC 19615 is reported as less than 0.25. Also, the “In Vitro (MIC) MRSA 33” value in the experiment with MRSA 33 is listed as less than 0.25.
In the case of `CC(=O)NC[C@H]1CN(c2ccc(N3CCC(N(C)C(=O)c4ccc([N+](=O)[O-])o4)C3)c(F)c2)C(=O)O1` (stereo partly drawn) [Compound No. 92], in the experiment with MRSA 15187, the “In Vitro (MIC) MRSA 15187” value came out at 0.5. Also, the “In Vitro (MIC) VRE 6A” value in the experiment on VRE 6A was less than 0.25. The “In Vitro (MIC) S. pneum 6303” value in the experiment with Strep. pne. ATCC 6303 came out at 1 µg/mL. Also, in the experiment on MRSA 562, the “In Vitro (MIC) MRSA 562” value is less than 0.25. Further, the “In Vitro (MIC) S. pneum AB 34” value with S. pneum AB 34 is 1. The “In Vitro (MIC) E.faecalis 29212” value with Ent. faecalis ATCC 29212 was less than 0.25. The “In Vitro (MIC) S.aureus 25923” value in the experiment with S.aureus ATCC 25923 is 1. In the experiment on Strep.pyog. ATCC 19615, the “In Vitro (MIC) S.pyogenes 19615” value worked out at 1. For the same compound, in the experiment on MRSA 33, the “In Vitro (MIC) MRSA 33” value was determined as 0.5.
On to `CC(=O)NC[C@H]1CN(c2ccc(N3CCC(CN(C)Cc4ccc([N+](=O)[O-])o4)CC3)c(F)c2)C(=O)O1` [Compound No. 93], for which the “In Vitro (MIC) MRSA 15187” value with MRSA 15187 is 1. Moreover, in the experiment with VRE 6A, the “In Vitro (MIC) VRE 6A” value is given as 4. Also, the “In Vitro (MIC) S. pneum 6303” value in the experiment with Strep. pne. ATCC 6303 came out at 4 µg/mL. In addition, the “In Vitro (MIC) MRSA 562” value in the experiment on MRSA 562 turned out to be 1. Also, the “In Vitro (MIC) S. pneum AB 34” value with S. pneum AB 34 turned out to be 4. Besides, the “In Vitro (MIC) E.faecalis 29212” value with Ent. faecalis ATCC 29212 is listed as 2. In the experiment with S.aureus ATCC 25923, the “In Vitro (MIC) S.aureus 25923” value is recorded as 2. For the same compound, the “In Vitro (MIC) S.pyogenes 19615” value with Strep.pyog. ATCC 19615 came out at 1. For the same compound, the “In Vitro (MIC) MRSA 33” value with MRSA 33 is 1.
Consider `CC(=O)NC[C@H]1CN(c2ccc(N3CCC(CN(C)Cc4ccc([N+](=O)[O-])s4)CC3)c(F)c2)C(=O)O1` [Compound No. 94], for which the “In Vitro (MIC) MRSA 15187” value with MRSA 15187 was 2. Further, in the experiment with VRE 6A, the “In Vitro (MIC) VRE 6A” value was 4. The “In Vitro (MIC) S. pneum 6303” value with Strep. pne. ATCC 6303 amounted to 4 µg/mL. Also, the “In Vitro (MIC) MRSA 562” value in the experiment with MRSA 562 is 2. Also, the “In Vitro (MIC) S. pneum AB 34” value with S. pneum AB 34 is reported as 8. The “In Vitro (MIC) E.faecalis 29212” value in the experiment on Ent. faecalis ATCC 29212 came to 4. Also, in the experiment on S.aureus ATCC 25923, the “In Vitro (MIC) S.aureus 25923” value stood at 4. Moreover, in the experiment on Strep.pyog. ATCC 19615, the “In Vitro (MIC) S.pyogenes 19615” value worked out at 4. The “In Vitro (MIC) MRSA 33” value in the experiment with MRSA 33 is 2.
For the compound `CC(=O)NC[C@H]1CN(c2ccc(N3CCCC(=O)C3)c(F)c2)C(=O)O1` [Compound No. 96, (S)-N-[[3-{3-Fluoro-4-(3-oxo-piperidin-1-yl)-phenyl}-2-oxo-5-oxazolidinyl]methyl]acetamide], the “In Vitro (MIC) MRSA 15187” value in the experiment with MRSA 15187 is reported as 16. Also, the “In Vitro (MIC) VRE 6A” value in the experiment on VRE 6A is 8. For the same compound, the “In Vitro (MIC) S. pneum 6303” value with Strep. pne. ATCC 6303 was 4 µg/mL. In the experiment with MRSA 562, the “In Vitro (MIC) MRSA 562” value is listed as 8. Further, the “In Vitro (MIC) S. pneum AB 34” value in the experiment on S. pneum AB 34 came out at 4. For the same compound, the “In Vitro (MIC) E.faecalis 29212” value in the experiment with Ent. faecalis ATCC 29212 amounted to 8. Also, the “In Vitro (MIC) S.aureus 25923” value with S.aureus ATCC 25923 worked out at 16. Also, the “In Vitro (MIC) S.pyogenes 19615” value in the experiment with Strep.pyog. ATCC 19615 amounted to 4. In addition, the “In Vitro (MIC) MRSA 33” value in the experiment on MRSA 33 is 16.
`CC(=O)NC[C@H]1CN(c2ccc(N3CC4C(CNCc5ccc([N+](=O)[O-])o5)C4C3)c(F)c2)C(=O)O1` (stereo partly drawn) [Compound No. 99, (S)-N-[[3-[3-Fluoro-4[N-1-[3-{N-2-furyl-(5-nitro)methyl}-aminomethyl]-3-azabicyclo[3.1.0]hexane]phenyl]-2-oxo-5-oxazolidinyl]methyl]acetamide]: in the experiment with MRSA 15187, the “In Vitro (MIC) MRSA 15187” value was more than 8. Also, the “In Vitro (MIC) VRE 6A” value in the experiment with VRE 6A turned out to be 8. For the same compound, in the experiment with Strep. pne. ATCC 6303, the “In Vitro (MIC) S. pneum 6303” value was 4 µg/mL. In addition, the “In Vitro (MIC) MRSA 562” value in the experiment with MRSA 562 was more than 8. Also, the “In Vitro (MIC) S. pneum AB 34” value in the experiment with S. pneum AB 34 turned out to be 4. The “In Vitro (MIC) E.faecalis 29212” value with Ent. faecalis ATCC 29212 is listed as more than 8. Also, the “In Vitro (MIC) S.aureus 25923” value with S.aureus ATCC 25923 is on record as more than 8. The “In Vitro (MIC) S.pyogenes 19615” value in the experiment on Strep.pyog. ATCC 19615 came out at 2. Also, in the experiment on MRSA 33, the “In Vitro (MIC) MRSA 33” value is reported as more than 8.
For `CC(=O)NC[C@H]1CN(c2ccc(N3CCN(C(C)c4ccc([N+](=O)[O-])s4)CC3)c(F)c2)C(=O)O1` (stereo partly drawn) [Compound No. 100], the “In Vitro (MIC) MRSA 15187” value with MRSA 15187 is listed as 0.5. In addition, the “In Vitro (MIC) VRE 6A” value in the experiment with VRE 6A came to 0.5. Also, the “In Vitro (MIC) S. pneum 6303” value in the experiment with Strep. pne. ATCC 6303 was 2 µg/mL. The “In Vitro (MIC) MRSA 562” value in the experiment with MRSA 562 is 0.5. In addition, the “In Vitro (MIC) S. pneum AB 34” value with S. pneum AB 34 is recorded as 2. In addition, the “In Vitro (MIC) E.faecalis 29212” value with Ent. faecalis ATCC 29212 was found to be 0.5. The “In Vitro (MIC) S.aureus 25923” value in the experiment on S.aureus ATCC 25923 is given as 0.5. In addition, in the experiment with Strep.pyog. ATCC 19615, the “In Vitro (MIC) S.pyogenes 19615” value is reported as 2. Also, the “In Vitro (MIC) MRSA 33” value with MRSA 33 is listed as 0.5.
For the compound `CC(=O)NC[C@H]1CN(c2ccc(N3CCN(C(C)c4ccc([N+](=O)[O-])o4)CC3)c(F)c2)C(=O)O1` (stereo partly drawn) [Compound No. 101], the “In Vitro (MIC) MRSA 15187” value in the experiment on MRSA 15187 is listed as 1. Further, the “In Vitro (MIC) VRE 6A” value with VRE 6A worked out at 0.25. The “In Vitro (MIC) S. pneum 6303” value in the experiment with Strep. pne. ATCC 6303 worked out at 1 µg/mL. In addition, the “In Vitro (MIC) MRSA 562” value in the experiment on MRSA 562 was determined as 1. The “In Vitro (MIC) S. pneum AB 34” value in the experiment with S. pneum AB 34 came out at 2. Moreover, in the experiment with Ent. faecalis ATCC 29212, the “In Vitro (MIC) E.faecalis 29212” value is 0.125. Also, the “In Vitro (MIC) S.aureus 25923” value in the experiment with S.aureus ATCC 25923 is 1. The “In Vitro (MIC) S.pyogenes 19615” value in the experiment on Strep.pyog. ATCC 19615 was determined as 0.06. Further, in the experiment on MRSA 33, the “In Vitro (MIC) MRSA 33” value was 1.

Source of the values: patent publication US20040242591A1, “Oxazolidinone derivatives as pontential antimicrobials” (priority 2001, published 2004).
